Measured values taken from patent US20070219214A1, “Dual NK2/NK3-antagonists, pharmaceutical compositions comprising them, and processes for their preparation” (Solvay pharmaceuticals GmbH, priority 2006, published 2007).
Read-outs that look alike come from different tables or passages of the source.

Columns and labels:
human NK2-receptor [1] = molecular target: T1, human NK2-receptor (Homo sapiens, UniProt P21452); assay: Functional cellular test, Ca2+ measurements using FLIPR for NK2 activity;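 note: CHO cells stably expressing the human receptor, loaded with a calcium dye, antagonist inhibition of ligand-evoked intracellular calcium rise read as peak fluorescence change on FLIPR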
T1 sequence (P21452 1-398): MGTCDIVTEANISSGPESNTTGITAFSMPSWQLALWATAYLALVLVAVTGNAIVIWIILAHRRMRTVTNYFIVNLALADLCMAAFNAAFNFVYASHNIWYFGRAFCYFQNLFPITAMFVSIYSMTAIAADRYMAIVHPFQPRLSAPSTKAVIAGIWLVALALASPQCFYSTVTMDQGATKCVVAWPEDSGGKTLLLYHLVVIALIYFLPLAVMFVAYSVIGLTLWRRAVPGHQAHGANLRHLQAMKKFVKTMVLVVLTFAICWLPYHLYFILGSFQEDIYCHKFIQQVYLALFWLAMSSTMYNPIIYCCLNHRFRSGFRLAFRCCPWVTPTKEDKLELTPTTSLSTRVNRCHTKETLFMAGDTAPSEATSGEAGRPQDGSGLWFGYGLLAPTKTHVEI

human NK2-receptor [2] = molecular target: T1, human NK2-receptor; assay: Binding potency of the test substances to NK2-receptors in vitro ([3H]-SR 48968 displacement); parameters: expressed in transfected cells; host or cells: CHO cells (membrane preparation); conditions: human NK2-receptor in CHO cell membranes, [3H]-SR 48968 (saredutant), average of at least three measurements; for Ki: read-out: pKi, binding potency to NK2-receptors (converted)
From the text: 2. Determination of the Binding Potency of the Test Substances to NK2-Receptors in Vitro
The affinity of test compounds for NK2-receptors can be determined by measuring the ability of the test compound to displace a radiolabeled ligand from its specific binding site.
(§1) The radiolabel used in this assay is [^3H]-SR 48968 (saredutant). Receptors were obtained from membrane preparations of CHO-cells (Chinese Hamster Ovary cells), in which the human NK2-receptor was stably expressed. Membranes were incubated with [^3H]-saredutant in the absence or presence of test compounds at different concentrations, diluted in a buffer system. Separation of bound radioactivity from free radioactivity was done by filtration through glass fiber filters (Packard GF/B) with several washings with ice-cold buffer solution. Bound radioactivity was measured with a liquid scintillation counter (total binding). Unspecific binding was determined by incubation with an excess (0.1 μmol/l) of unlabeled saredutant. Specific binding is obtained by subtracting the unspecific binding from the total binding.
(§2) Radioactivity of the specific binding was plotted against the concentration of the test compound and IC50 values, i.e. the concentration of test compound by which 50% of the radioligand is displaced, were calculated. The inhibition constant (Ki) was calculated according to the Cheng-Prusoff equation, and listed as its negative logarithmic value (pKi). The pKi value describes the potency of a test compound to bind to a receptor.
(§3) The average result of all measurements is listed above.

human NK3 receptor [3] = molecular target: T2, human NK3 receptor (Homo sapiens, UniProt P29371); assay: Binding potency of the test substances to NK3-receptors in vitro ([3H]-SR 142801 displacement); parameters: expressed in transfected cells; host or cells: CHO cells (membrane preparation); conditions: human NK3-receptor in CHO cell membranes, [3H]-SR 142801 (osanetant), average of at least three measurements; for Ki: read-out: pKi, binding potency to NK3-receptors (converted)
T2 sequence (P29371 1-465): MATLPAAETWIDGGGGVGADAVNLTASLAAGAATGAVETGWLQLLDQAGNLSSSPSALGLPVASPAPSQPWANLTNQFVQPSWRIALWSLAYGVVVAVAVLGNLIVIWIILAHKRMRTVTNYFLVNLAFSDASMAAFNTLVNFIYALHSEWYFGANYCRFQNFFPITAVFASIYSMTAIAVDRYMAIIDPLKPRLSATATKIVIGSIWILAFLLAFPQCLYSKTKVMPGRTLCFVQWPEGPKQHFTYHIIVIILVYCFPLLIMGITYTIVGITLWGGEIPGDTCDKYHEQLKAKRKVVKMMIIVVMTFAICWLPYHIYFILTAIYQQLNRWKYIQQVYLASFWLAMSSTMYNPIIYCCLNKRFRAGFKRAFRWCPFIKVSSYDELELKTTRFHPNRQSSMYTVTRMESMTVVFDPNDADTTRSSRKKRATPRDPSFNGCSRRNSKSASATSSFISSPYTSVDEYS
From the text: 3. Determination of the Binding Potency of the Test Substances to NK3-Receptors in Vitro
The affinity of test compounds for NK3-receptors can be determined by measuring the ability of the test compound to displace a radiolabeled ligand from its specific binding site.
as §1, with “142801 (osanetant).” for “48968 (saredutant).”, “NK3-receptor” for “NK2-receptor”, “[^3H]-osanetant” for “[^3H]-saredutant”, “(1” for “(0.1”, “osanetant.” for “saredutant.”
as §2, with “(pKi)” for “(pKi).”
as §3

human NK3 receptor [4] = molecular target: T2, human NK3 receptor; assay: Functional cellular test, Ca2+ measurements using aequorin for NK3 activity; format: cell-based; parameters: expressed in transfected cells; host or cells: cell line co-expressing mitochondrially targeted apoaequorin (CHO according to b76/b77); conditions: for Kb: read-out: pA2 data for NK3 (converted)
human NK1-receptor [5] = molecular target: T3, human NK1-receptor (Homo sapiens, UniProt P25103); assay: Binding potency of the test substances to NK1-receptors in vitro ([3H]-Substance P displacement); conditions: human NK1-receptor in CHO cell membranes, average of at least three measurements
T3 sequence (P25103 whole entry): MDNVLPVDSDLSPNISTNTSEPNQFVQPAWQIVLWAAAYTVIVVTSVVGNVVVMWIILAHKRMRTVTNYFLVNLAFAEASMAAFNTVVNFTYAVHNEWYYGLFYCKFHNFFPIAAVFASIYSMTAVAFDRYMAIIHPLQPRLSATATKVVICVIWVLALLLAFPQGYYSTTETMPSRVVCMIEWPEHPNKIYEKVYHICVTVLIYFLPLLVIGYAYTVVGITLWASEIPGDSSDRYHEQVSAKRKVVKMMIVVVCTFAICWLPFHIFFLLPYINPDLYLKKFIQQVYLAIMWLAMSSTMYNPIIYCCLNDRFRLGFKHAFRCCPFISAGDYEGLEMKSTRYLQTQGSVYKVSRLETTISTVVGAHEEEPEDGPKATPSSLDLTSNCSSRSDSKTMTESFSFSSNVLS
Procedure: 1. Determination of the Binding Potency of the Test Substances to NK1-Receptors in Vitro
The affinity of test compounds for NK1-receptors can be determined by measuring the ability of the test compound to displace a radiolabeled ligand from its specific binding site. The tests were performed at Solvay Pharmaceuticals, Weesp, The Netherlands.
Separation of bound radioactivity from free radioactivity was done by filtration through glass fiber filters (Packard GF/B) with several washings with ice-cold buffer solution. Bound radioactivity was measured with a liquid scintillation counter (total binding).
The inhibition constant (Ki) was calculated according to the Cheng-Prusoff equation, and listed as its negative logarithmic value (pKi). The pKi value describes the potency of a test compound to bind to a receptor.

human NK1-receptor [6] = molecular target: T3, human NK1-receptor; assay: Functional cellular test, Ca2+ measurements using FLIPR for NK1 activity; format: cell-based; parameters: expressed in transfected cells; host or cells: CHO fibroblast cells; conditions: read-out: pA2 data for NK1 (converted)
From the text: The NK receptor is coupled to Gq.
All steps were done under sterile conditions.

[7] = read-out: pKi, binding potency to NK1-receptors (converted)

CN(C)C(=O)C1(N2CCCCC2)CCN(CCC(CN(C)C(=O)c2ccoc2)c2ccc(Cl)c(Cl)c2)CC1 (stereo not shown) [compound 36]
Kb (human NK2-receptor [1]): 0.000501 µM | Ki (human NK2-receptor [2]): 0.00158 µM | Ki (human NK3 receptor [3]): 0.00501 µM | Kb (human NK3 receptor [4]): 0.0631 µM

CN(C)C(=O)C1(N2CCCCC2)CCN(CCC(CN(C)C(=O)c2ccccn2)c2ccc(Cl)c(Cl)c2)CC1 (stereo not shown) [compound 43]
Kb (human NK2-receptor [1]): 0.000631 µM | Ki (human NK2-receptor [2]): 0.000251 µM | Ki (human NK3 receptor [3]): 0.00501 µM | Kb (human NK3 receptor [4]): 0.0316 µM

CC(=O)Oc1ccc(C(=O)N(C)C[C@@H](CCN2CCC(C(=O)N(C)C)(N3CCCCC3)CC2)c2ccc(Cl)c(Cl)c2)cc1 [compound 5, 4-({[(2S)-2-(3,4-dichlorophenyl)-4-{4′-[(dimethylamino)-carbonyl]-1,4′-bipiperidin-1′-yl}butyl](methyl)amino}carbonyl)phenyl acetate]
Kb (human NK2-receptor [1]): 0.00316 µM | Ki (human NK2-receptor [2]): 0.001 µM | Ki (human NK3 receptor [3]): 0.00501 µM | Kb (human NK3 receptor [4]): 0.00316 µM

CN(CC(CCN1CCC(C(=O)N2CCCCC2)(N2CCCCC2)CC1)c1ccc(Cl)c(Cl)c1)C(=O)c1cc(C#N)cc2ccccc12 (stereo not shown) [compound 125]
Ki (human NK1-receptor [5]; [7]): 0.0126 µM | Ki (human NK2-receptor [2]): 0.0501 µM | Ki (human NK3 receptor [3]): 0.0501 µM

Cc1c(C(=O)N(C)CC(CCN2CCC(C(=O)N(C)C)(N3CCCCC3)CC2)c2ccc(Cl)c(Cl)c2)nnn1Cc1ccccc1 (stereo not shown) [compound 67]
Kb (human NK2-receptor [1]): 0.0251 µM | Ki (human NK2-receptor [2]): 0.00631 µM | Ki (human NK3 receptor [3]): 0.00501 µM | Kb (human NK3 receptor [4]): 0.0158 µM

CN(C)C(=O)C1(N(C)C)CCN(CCC(CN(C)C(=O)c2ccccc2)c2ccc(Cl)c(Cl)c2)CC1 (stereo not shown) [compound 127]
Ki (human NK1-receptor [5]; [7]): 0.0794 µM | Ki (human NK2-receptor [2]): 0.002 µM

CN(C)C(=O)C1(N2CCCCC2)CCN(CCC(CN(C)C(=O)Cc2ccc(C(F)(F)F)c(C(F)(F)F)c2)c2ccc(Cl)c(Cl)c2)CC1 (stereo not shown) [compound 56]
Ki (human NK1-receptor [5]; [7]): 0.0631 µM | Ki (human NK2-receptor [2]): 0.0251 µM | Ki (human NK3 receptor [3]): 0.00501 µM

CN(C)C(=O)C1(N2CCCCC2)CCN(CCC(CN(C)C(=O)c2cccc(C(F)(F)F)c2)c2ccc(Cl)c(Cl)c2)CC1 (stereo not shown) [compound 83]
Ki (human NK1-receptor [5]; pKi, binding potency to NK1-receptors): 0.0794 µM | Kb (human NK2-receptor [1]): 0.0158 µM | Ki (human NK2-receptor [2]): 0.00501 µM | Ki (human NK3 receptor [3]): 0.00316 µM

CN(C)C(=O)C1(N2CCCCC2)CCN(CCC(CN(C)C(=O)c2cccc(Cl)c2)c2ccc(Cl)c(Cl)c2)CC1 (stereo not shown) [compound 80]
Ki (human NK1-receptor [5]; [7]): 0.0794 µM | Ki (human NK2-receptor [2]): 0.002 µM | Ki (human NK3 receptor [3]): 0.0794 µM

COc1cccc(C(=O)N(C)CC(CCN2CCC(C(=O)N(C)C)(N3CCCCC3)CC2)c2ccc(Cl)c(Cl)c2)c1 (stereo not shown) [compound 82]
Ki (human NK1-receptor [5]; [7]): 0.0794 µM | Ki (human NK2-receptor [2]): 0.00251 µM | Ki (human NK3 receptor [3]): 0.0251 µM

CN(C)C(=O)C1CCCCN1C1CCN(CCC(CN(C)C(=O)c2ccccc2)c2ccc(Cl)c(Cl)c2)CC1 (stereo not shown) [compound 97]
Kb (human NK2-receptor [1]): 0.000251 µM | Ki (human NK2-receptor [2]): 0.002 µM | Ki (human NK3 receptor [3]): 0.0794 µM | Kb (human NK3 receptor [4]): 0.0794 µM

CN(C)C(=O)C1(N2CCCCC2)CCN(CC[C@H](CN(C)C(=O)c2ccccc2O)c2ccc(Cl)c(Cl)c2)CC1 [compound 12]
pA2 data for NK2 (human NK2-receptor [1]; CHO cells, human NK2, FLIPR Ca2+, agonist NKA 10^-7 M): 8.3 | pKi, binding potency to NK2-receptors (human NK2-receptor [2]): 8.7 | pKi, binding potency to NK3-receptors (human NK3 receptor [3]): 7.9 | pA2 data for NK3 (human NK3 receptor [4]; cell line with human NK3 receptor and apoaequorin, agonist senktide 5x10-8 M): 7.9

CN(C)C(=O)C1(N2CCCCC2)CCN(CCC(CN(C)C(=O)c2ccc(OC(F)(F)F)cc2)c2ccc(Cl)c(Cl)c2)CC1 (stereo not shown) [compound 55]
Kb (human NK2-receptor [1]): 0.002 µM | Ki (human NK2-receptor [2]): 0.00631 µM | Ki (human NK3 receptor [3]): 0.00398 µM | Kb (human NK3 receptor [4]): 0.00794 µM

CNc1ccccc1C(=O)N(C)CC(CCN1CCC(C(=O)N(C)C)(N2CCCCC2)CC1)c1ccc(Cl)c(Cl)c1 (stereo not shown) [compound 24]
Ki (human NK1-receptor [5]; [7]): 0.0794 µM | Ki (human NK2-receptor [2]): 0.00501 µM

CN(C)C(=O)C1(N2CCCCC2)CCN(CCC(CN(C)C(=O)c2cccs2)c2ccc(Cl)c(Cl)c2)CC1 (stereo not shown) [compound 37]
Kb (human NK2-receptor [1]): 0.00158 µM | Ki (human NK2-receptor [2]): 0.00158 µM | Ki (human NK3 receptor [3]): 0.02 µM | Kb (human NK3 receptor [4]): 0.0316 µM

CN(CC(CCN1CCC(C(=O)N2CCCC2)(N2CCCCC2)CC1)c1ccc(Cl)c(Cl)c1)C(=O)c1cc(C#N)cc2ccccc12 (stereo not shown) [compound 126]
Ki (human NK1-receptor [5]; [7]): 0.00631 µM | Ki (human NK2-receptor [2]): 0.01 µM | Ki (human NK3 receptor [3]): 0.0398 µM

CN(C)C(=O)C1(N2CCN(CC[C@H](CN(C)C(=O)c3ccccc3)c3ccc(Cl)c(Cl)c3)CC2)CCCCC1 [compound 96, N-[(2S)-2-(3,4-dichlorophenyl)-4-(4-{1-[(dimethylamino)-carbonyl]cyclohexyl}piperazin-1-yl)butyl]-N-methylbenzamide]
Kb (human NK1-receptor [6]): 0.0316 µM | Kb (human NK2-receptor [1]): 0.00126 µM | Ki (human NK2-receptor [2]): 0.002 µM

CN(C)C(=O)C1(N2CCCCC2)CCN(CCC(CN(C)C(=O)c2cc[n+]([O-])cc2)c2ccc(Cl)c(Cl)c2)CC1 (stereo not shown) [compound 17]
Kb (human NK2-receptor [1]): 0.0158 µM | Ki (human NK2-receptor [2]): 0.0316 µM | Kb (human NK3 receptor [4]): 0.126 µM

CN(C)C(=O)C1(N2CCCCC2)CCN(CCC(CN(C)C(=O)C2CCOCC2)c2ccc(Cl)c(Cl)c2)CC1 (stereo not shown) [compound 53]
Ki (human NK3 receptor [3]): 0.00316 µM | Kb (human NK3 receptor [4]): 0.0501 µM

CN(C)C(=O)C1(N2CCCCC2)CCN(CCC(CN(C)C(=O)c2cc(C(F)(F)F)cc(C(F)(F)F)c2)c2ccc(Cl)c(Cl)c2)CC1 (stereo not shown) [compound 70]
Ki (human NK1-receptor [5]; [7]): 0.0631 µM | Ki (human NK2-receptor [2]): 0.0251 µM | Ki (human NK3 receptor [3]): 0.0631 µM

CN(C)C(=O)C1(N2CCCCC2)CCN(CCC(CN(C)C(=O)Cc2ccncc2)c2ccc(Cl)c(Cl)c2)CC1 (stereo not shown) [compound 51]
Kb (human NK2-receptor [1]): 0.0398 µM | Ki (human NK2-receptor [2]): 0.0794 µM | Ki (human NK3 receptor [3]): 0.00631 µM | Kb (human NK3 receptor [4]): 0.0316 µM
